Tests used:
[1] = tested on: LN229; experiment: MTT cytotoxicity assay, LN229; format: cell-based, human; settings: 72 h incubation
Procedure: (§1) The cytotoxic activity of prepared RAPTA complexes (4a–4h) was evaluated by following the standard procedure of the MTT experiment against a series of glioblastoma cells (LN 229, T98, U87MG) in triplicate. In order to accomplish this study, cells were maintained for 72 h with complexes of various concentrations ranging from 2–160 μM, taking cisplatin as a typical positive control.[22]
(§2) RAPTA complexes were dissolved in 1% DMSO, and 0.9% NaCl aqueous solution was used to dissolve cisplatin. A cell suspension was prepared and the number of cells taken was 2.5 × 10^4 mL^−1. The cells were seeded in 96-well plates (200 μL per well) and allowed 80% confluence prior to treatment. The cells were formerly treated with various concentrations (2.5–160 μM) of complex 4a–h while the control group was treated with PBS […]. After the 72 hours of incubation, 0.5% MTT solution was added to each well (20 μL) and further incubated for 4 hours at […]. The formazan crystals that were formed were dissolved in 150 μL DMSO and then the OD was measured by a microplate reader at 540 nm. The % growth inhibition of the control and treated cells were calculated and represented as the growth inhibition percentage as explained below.% growth inhibition = 100 − [(AD × 100)/AB]where AD is the absorbance measured in wells containing the treated and control samples and AB is the measured absorbance for the wells with media and a vehicle that served as the blank. IC50 was calculated using Graphpad Prism (version 6.0) where % cell viability was plotted against drug concentration.

[2] = tested on: T98; experiment: MTT cytotoxicity assay, T98; format: cell-based, human; settings: 72 h incubation
Procedure: as §1, §2

[3] = Conductivity measurement; format: physicochemical; settings: 3 x 10^-5 M; for Conductivity (ΛM) 10% aq DMSO: in 10% aq DMSO; for Conductivity (ΛM) DMSO: in DMSO
Source text: concentrations gradually.
Origin Lab, version 8.5 was
equation (v) given below: […]
Conductivity measurement 7
complexes with DMSO and aqueous DMSO.
followed the previously described procedure. An orbital shaker was used to shake a known
Different ratios (0.5:1, 1:1,
saturated n-octanol to get the partition coefficient. The absorbance of aliquots of the aqueous

[4] = tested on: Ct-DNA; experiment: DNA binding study, UV-visible absorption titration; design: species or system calf
Procedure: The DNA binding proficiency of RAPTA complexes was explored by applying the concept of electronic absorption titration. The binding propensity of the RAPTA complex, 4c with Ct-DNA, was investigated using UV-visible studies. […] From the plot of [DNA]/(εa − εf) vs. [DNA] the intrinsic binding constant (Kb) was recognized for the specified 4c–DNA conjugate.
The binding capability of the complexes with calf-thymus DNA (Ct-DNA) was evaluated using electronic absorption spectroscopy, and the competitive binding assay was studied using ethidium bromide (EtBr) as a quencher by fluorescence spectroscopy.
The DNA binding experiment was performed in aqueous medium using RAPTA complex 4c in Tris-HCl buffer (5 mM Tris-HCl in water, pH 7.4). The concentration of Ct-DNA was determined using its absorbance at 260 nm and a known molar absorption coefficient of 6600 M-1.cm-1. In cuvettes, an equal amount of DNA was introduced to both the sample and the reference. […] The sample was equilibrated with CT-DNA for around 5 minutes before each measurement, and then the complex's absorbance was measured. The intrinsic DNA binding constant (K b) was calculated using the equation (i): […]
UV and Fluorescence study
All of these RAPTA complexes were studied in a 10% DMSO solution using UV and fluorescence. […] Quantum yield was calculated according to the equation (ii): […]

[5] = tested on: TNF-α-induced NF-κB phosphorylation; experiment: Real-time RT-PCR; format: cell-based, human; settings: glioma cells, 48 h
Source text: It is known that the NF-κB pathway plays an important role in the modulation of inflammatory and immune responses.[25] Under normal conditions, NF-κB is found in the cytoplasm as the dimer complex p65/p50 with the kappa B inhibitor forming the NF-κB-IκB complex which involves TNF-α. As expected, the treatment with TNF-α induces IκB protein phosphorylation and the NF-κB dimer p65/p50 is translocated into the nucleus. Inside the nucleus, the NF-κB dimer binds to its own DNA and the κB site, initiating the transcription of many genes associated with proliferation as well as the invasion of cells, anti-apoptosis along with drug resistivity (e.g., Bcl-2 family, Bcl-XL, cyclin D1, c-myc, interleukin-1 and 6 (IL-6), cyclooxygenase-2 (COX-2), inducible NO-synthase (iNOS)). Complex 4c reduced TNF-α-induced NF-κB phosphorylation at 48 h. In summary, complex 4c inhibited the TNF-α-induced NF-κB phosphorylation in glioma cells and NF-κB could be validated as a targeted therapeutic molecule for tumour diseases (Fig. S5 ^†).
Cultured cells U87MG and T98G were treated with various concentrations of 4c (20–160 μM) for 48 h. Total RNA was extracted and complementary DNA (cDNA) was transcribed using Qiazol reagent and Thermo Scientific Revert Aid First Strand cDNA Synthesis Kit. […] The amplified products were analyzed by a melting curve analysis.

Structure (SMILES): C1N2CN3CN1CP(C2)C3.Cc1ccc(C(C)C)cc1.Cc1ccnc2c1ccc1c(C)ccnc12.F[P-](F)(F)(F)(F)F.F[P-](F)(F)(F)(F)F.[Ru+2] [4c, [(η^6-p-Cymene)Ru^II(κ^2-N,N-4,7dimethylphenanthroline)(PTA)]·2PF6]
- IC50 [1]: 880 ± 20 nM
- IC50 [2]: 970 ± 20 nM
- Conductivity (ΛM) 10% aq DMSO [3]: 78 S cm2 mol-1
- Conductivity (ΛM) DMSO [3]: 76 S cm2 mol-1
- Change in absorbance [4]: Hyperchromism
- Δε (%), % of hyperchromism/hypochromism [4]: 50%
- TNF-α-induced NF-κB phosphorylation [5]: reduced

Structure (SMILES): C1N2CN3CN1CP(C2)C3.Cc1ccc(C(C)C)cc1.F[P-](F)(F)(F)(F)F.F[P-](F)(F)(F)(F)F.[Ru+2].c1ccc(-c2ccnc3c2ccc2c(-c4ccccc4)ccnc23)cc1 [4d, [(η^6-p-Cymene)Ru^II(κ^2-N,N-4,7diphenylphenanthroline)(PTA)]·2PF6]
- IC50 [1]: 960 ± 20 nM
- IC50 [2]: 940 ± 20 nM
- Conductivity (ΛM) 10% aq DMSO [3]: 77 S cm2 mol-1
- Conductivity (ΛM) DMSO [3]: 74 S cm2 mol-1
